# Structures can show the parent of a compound that is named as a salt.
# Test: Volatility of perfuming compounds in air
# Format: physicochemical
# [1] = Table 6, perfuming compounds having a fruity note
# [2] = Table 10, perfuming compounds having a woody note
# [3] = Table 5, perfuming compounds having a green note
# [4] = Table 8, perfuming compounds having a sweet note
# [5] = Table 9, perfuming compounds having a gourmand note
molecule,measurement,setting,value
C/C=C(\C)C(=O)OCc1ccccc1 [BENZYL (E)-2-METHYL-2-BUTENOATE],Volatility (μg/l air),[1],33.88 μg/l air
same,Volatility (μg/l air),[2],33.88 μg/l air
"CC(CC=O)CC(C)(C)C (racemic) [(+−)-3,5,5-TRIMETHYLHEXANAL]",Volatility,[3],12045.92 μg/l air
COc1cc(C)ccc1O [2-METHOXY-4-METHYLPHENOL],Volatility (μg/l air),[4],306.61 μg/l air
COc1ccc(COC(C)=O)cc1 [4-METHOXYBENZYL ACETATE],Volatility (μg/l air),[1],17.59 μg/l air
"CCC(=O)OCC(C)(C)OC(C)C1CCCC(C)(C)C1 (single isomer, unassigned; (+))",Volatility (μg/l air),[1],4.39 μg/l air
"(−)-(1S)-2,6,6-TRIMETHYL-BICYCLO[3.1.1]HEPT-2-ENE",Volatility,[3],33722.60 μg/l air
CCC/C=C/CO [(E)-2-HEXEN-1-OL],Volatility,[3],3752.17 μg/l air
CC(=O)CCc1ccc(O)cc1 [4-(4-HYDROXY-1-PHENYL)-2-BUTANONE],Volatility (μg/l air),[1],0.36 μg/l air
C[C@@H]1CC[C@H]2C(C)(C)[C@H]3C[C@@]12C[C@@H]1OC(C)(C)O[C@@]13C,Volatility (μg/l air),[2],0.00 μg/l air
CC(=O)OC/C=C/c1ccccc1 [(E)-3-PHENYL-2-PROPENYL ACETATE],Volatility (μg/l air),[1],20.47 μg/l air
CC(=O)OCCc1ccccc1 [2-PHENYLETHYL ACETATE],Volatility (μg/l air),[4],201.26 μg/l air
same,Volatility (μg/l air),[5],201.26 μg/l air
C=C1CCCC(C)(C)C1C(=O)/C=C/C (racemic),Volatility (μg/l air),[4],152.99 μg/l air
same,Volatility (μg/l air),[5],152.99 μg/l air
CC(C)=CCC/C(C)=C/CO,Volatility,"Table 7, citrus note",89.88 μg/l air
SCc1ccco1 [2-FURANMETHANETHIOL],Volatility (μg/l air),[4],29677.31 μg/l air
CCC(=CCC1CC=C(C)C1(C)C)CO (racemic),Volatility (μg/l air),[2],3.69 μg/l air
CC(C)=CCC/C(C)=C\CO,Volatility,"Table 7, citrus note",86.02 μg/l air
CCCC(=NO)C(C)C [2-METHYL-3-HEXANONE OXIME],Volatility,[3],687.75 μg/l air
COC(=O)/C=C/c1ccccc1 [METHYL (E)-3-PHENYL-2-PROPENOATE],Volatility (μg/l air),[1],61.65 μg/l air
CC(C)Cc1ccc2ccccc2n1 [2-ISOBUTYLQUINOLINE],Volatility (μg/l air),[4],8.73 μg/l air
COc1ccc(CCC(C)=O)cc1 [4-(4-METHOXYPHENYL)-2-BUTANONE],Volatility (μg/l air),[1],5.58 μg/l air
same,Volatility (μg/l air),[4],5.58 μg/l air
same,Volatility (μg/l air),[5],5.58 μg/l air
C=C/C=C/C=C\CCCCC,Volatility,[3],1247.28 μg/l air
CC(CC=O)c1ccccc1 (racemic) [(+−)-3-PHENYLBUTANAL],Volatility,[3],227.83 μg/l air
CC(=O)/C(C)=C/C1C(C)=CCCC1(C)C (racemic),Volatility (μg/l air),[1],36.33 μg/l air
same,Volatility (μg/l air),[2],106.28 μg/l air
"CCCC(=O)OC(C)(C)Cc1ccccc1 [1,1-DIMETHYL-2-PHENYLETHYL BUTANOATE]",Volatility (μg/l air),[1],34.65 μg/l air
same,Volatility (μg/l air),[4],34.65 μg/l air
same,Volatility (μg/l air),[5],34.65 μg/l air
"COC(OC)C(C)c1ccccc1 (stereo not drawn) [1,1-DIMETHOXY-2-PHENYLPROPANE]",Volatility,[3],376.94 μg/l air
CC(=O)OCCC1CCCCC1 [2-CYCLOHEXYLETHYL ACETATE],Volatility (μg/l air),[4],489.45 μg/l air
same,Volatility (μg/l air),[5],489.45 μg/l air
CCCCCCO [1-hexanol],Volatility,[3],2070.00 μg/l air
"3,7-DIMETHYL-2,6-NONADIENENITRILE (A) + 3,7-DIMETHYL-3,6-NONADIENENITRILE (B)",Volatility,[3],78.89 μg/l air
Cc1occc(=O)c1O [3-HYDROXY-2-METHYL-4(4H)-PYRANONE],Volatility (μg/l air),[1],92.42 μg/l air
same,Volatility (μg/l air),[4],92.42 μg/l air
COc1ccc(C(C)=O)cc1 [1-(4-METHOXYPHENYL)-1-ETHANONE”],Volatility,[3],50.21 μg/l air
CCCC=C1OC(=O)c2ccccc21 [3-BUTYLIDENE-1-BENZO[C]FURANONE],Volatility (μg/l air),[4],14.37 μg/l air
same,Volatility (μg/l air),[5],14.37 μg/l air
O=COCc1ccccc1 [BENZYL FORMATE],Volatility,[3],1339.53 μg/l air
COc1nccnc1CCCC(C)C,Volatility,[3],195.24 μg/l air
CCCC(S)CCOC (racemic) [(+−)-1-METHOXY-3-HEXANETHIOL],Volatility,[3],2534.77 μg/l air
Cc1ccc(OCC=O)cc1,Volatility,[3],89.41 μg/l air
CC1(CO)CC1CC1CC2CC2(C)C1(C)C (stereo not drawn),Volatility (μg/l air),[2],1.74 μg/l air
"COc1ccc(OC)c(C(C)(C)C)c1 [2-TERT-BUTYL-1,4-DIMETHOXYBENZENE]",Volatility (μg/l air),[2],82.95 μg/l air
CCOCOC1CCCCCCCCCCC1 [(ETHOXYMETHOXY)CYCLODODECANE],Volatility (μg/l air),[2],6.63 μg/l air
c1ccc(CCCc2ccccn2)cc1 [2-(3-PHENYLPROPYL)PYRIDINE],Volatility,[3],3.83 μg/l air
O=C/C=C/c1ccccc1 [(E)-3-PHENYL-2-PROPENAL],Volatility (μg/l air),[2],70.14 μg/l air
CC(=O)O[C@@H]1CC2CC[C@]1(C)C2(C)C,Volatility (μg/l air),[2],735.37 μg/l air
CCCCCCC1CCC(=O)O1 (racemic) [(+−)-4-DECANOLIDE],Volatility (μg/l air),[1],10.49 μg/l air
same,Volatility (μg/l air),[4],10.49 μg/l air
same,Volatility (μg/l air),[5],10.49 μg/l air
N#CC(=C1CCCCC1)c1ccccc1 [CYCLOHEXYLIDENE(PHENYL)ACETONITRILE],Volatility,[3],0.96 μg/l air
OCCc1ccccc1 [2-PHENYLETHANOL],Volatility (μg/l air),[4],159.75 μg/l air
same,Volatility (μg/l air),[5],159.75 μg/l air
"CC(=O)OC/C=C(\C)CCC=C(C)C [(E)-3,7-DIMETHYL-2,6-OCTADIENYL ACETATE]",Volatility (μg/l air),[1],85.23 μg/l air
CC1=CCC(C(C)(C)O)CC1 (racemic) [(+−)-ALPHA-TERPINEOL],Volatility (μg/l air),[2],172.78 μg/l air
CCCCC[C@@H]1OC(=O)C[C@H]1C (racemic) [(+−)-TRANS-3-METHYL-4-NONANOLIDE],Volatility (μg/l air),[1],21.05 μg/l air
same,Volatility (μg/l air),[4],21.05 μg/l air
same,Volatility (μg/l air),[5],21.05 μg/l air
CCCCC/C=C\CCC=O [(Z)-4-DECENAL],Volatility,[3],629.54 μg/l air
COC(=O)OC1CC/C=C\CCC1 (racemic),Volatility,[3],278.83 μg/l air
CCCOC(C)OCCc1ccccc1 (stereo not drawn) [1-PHENYL-2-(1-PROPOXYETHOXY)ETHANE],Volatility,[3],59.63 μg/l air
"CC(=O)OCCC(C)CCC=C(C)C (stereo not drawn) [3,7-DIMETHYL-6-OCTENYL ACETATE]",Volatility (μg/l air),[1],128.72 μg/l air
CC/C=C\CCO [(Z)-3-HEXEN-1-OL],Volatility,[3],5986.62 μg/l air
CC1(C)CCC[C@@]2(C)[C@H]1CC[C@@]1(C)OCC[C@@H]21,Volatility (μg/l air),[2],9.23 μg/l air
COC(=O)C1C(C)=CCCC1(C)C (racemic),Volatility,[3],2010.91 μg/l air
CCOC(=O)/C=C/c1ccccc1 [ETHYL (E)-3-PHENYL-2-PROPENOATE],Volatility (μg/l air),[1],20.55 μg/l air
COC(C)(C)CCCC(C)C(C)O (racemic),Volatility (μg/l air),[2],35.54 μg/l air
CC(C)(C)C(=O)OCCc1ccccc1 [2-PHENYLETHYL PIVALATE],Volatility (μg/l air),[1],71.44 μg/l air
same,Volatility (μg/l air),[4],71.44 μg/l air
same,Volatility (μg/l air),[5],71.44 μg/l air
C=C1C2CCC(C)(OCC)C1CCC2(C)C (racemic),Volatility (μg/l air),[2],135.00 μg/l air
CCC(=O)OC/C=C/c1ccccc1 [(E)-3-PHENYL-2-PROPENYL PROPANOATE],Volatility (μg/l air),[1],8.14 μg/l air
CCCCCC1CCC(=O)O1 (racemic) [(+−)-4-NONANOLIDE],Volatility (μg/l air),[1],27.42 μg/l air
same,Volatility (μg/l air),[5],27.42 μg/l air
CCCC1CCC(=O)O1 (racemic) [(+−)-4-HEPTANOLIDE],Volatility (μg/l air),[4],295.34 μg/l air
CC(C)=CC1CC(C)CCO1 (stereo not drawn),Volatility,[3],2483.93 μg/l air
CC(=O)/C(C)=C(/C)C(C)C(C)(C)C (racemic),Volatility (μg/l air),[2],659.22 μg/l air
"CCOC(=O)C1OC1(C)c1ccccc1 (stereo not drawn) [ETHYL 2,3-EPDXY-3-PHENYLBUTANOATE]",Volatility (μg/l air),[1],12.97 μg/l air
CC1CCCC2(C)CCCCC12O (racemic),Volatility,[3],330.48 μg/l air
"COc1cccc(OC)c1O [2,6-DIMETHOXYPHENOL]",Volatility (μg/l air),[4],19.23 μg/l air
same,Volatility (μg/l air),[5],19.23 μg/l air
COC(=O)Cc1ccccc1 [METHYL PHENYLACETATE],Volatility (μg/l air),[4],555.30 μg/l air
same,Volatility (μg/l air),[5],555.30 μg/l air
CC1=CC[C@H](C(C)CC2CCCC2=O)CC1 (stereo partly drawn),Volatility (μg/l air),[1],2.05 μg/l air
same,Volatility (μg/l air),[4],2.05 μg/l air
same,Volatility (μg/l air),[5],2.05 μg/l air
CC(C)CCOCCc1ccccc1 [3-METHYLBUTYL 2-PHENYLETHYL ETHER],Volatility (μg/l air),[1],110.11 μg/l air
same,Volatility (μg/l air),[4],110.11 μg/l air
same,Volatility (μg/l air),[5],110.11 μg/l air
C=C(C)[C@@H]1CC=C(CO)CC1,Volatility,[3],33.78 μg/l air
CC/C=C\CCCCC=O [(Z)-6-NONENAL],Volatility,[3],2431.73 μg/l air
CCc1occc(=O)c1O [2-ETHYL-3-HYDROXY-4(4H)-PYRANONE],Volatility (μg/l air),[1],48.86 μg/l air
same,Volatility (μg/l air),[4],48.86 μg/l air
CC=CC(=O)C(C)CC (stereo not drawn) [5-METHYL-2-HEPTEN-4-ONE],Volatility (μg/l air),[4],5525.83 μg/l air
CC(=O)OCCC1=CCC2CC1C2(C)C (stereo not drawn),Volatility (μg/l air),[2],60.02 μg/l air
CC1CC(C)(c2ccccc2)OC(C)O1 (stereo not drawn),Volatility (μg/l air),[1],113.83 μg/l air
COc1ccc(C=O)cc1 [4-METHOXYBENZALDEHYDE],Volatility,[3],98.47 μg/l air
CC(=O)c1ccccc1 [1-phenylethanone],Volatility (μg/l air),[4],1728.98 μg/l air
CCCCC1CCCC(=O)O1 (stereo not drawn) [5-NONANOLIDE],Volatility (μg/l air),[1],23.87 μg/l air
same,Volatility (μg/l air),[4],23.87 μg/l air
same,Volatility (μg/l air),[5],23.87 μg/l air
O=c1ccc2ccccc2o1 [2-CHROMENONE],Volatility (μg/l air),[4],0.51 μg/l air
same,Volatility (μg/l air),[5],0.51 μg/l air
N#C/C=C/c1ccccc1 [(E)-3-PHENYL-2-PROPENENITRILE],Volatility (μg/l air),[2],66.00 μg/l air
CC1CC(C)(C)OC(Cc2ccccc2)O1 (stereo not drawn),Volatility,[3],29.99 μg/l air
"Cc1cnc(C)c(C)n1 [2,3,5-TRIMETHYLPYRAZINE]",Volatility (μg/l air),[4],7897.31 μg/l air
COC(OC)C(C)(C)CC=C(C)C,Volatility (μg/l air),[2],1311.32 μg/l air
C[C@H]1[C@@H]2C[C@H](C[C@@]13C=CC(=O)CC3)C2(C)C,Volatility (μg/l air),[1],4.14 μg/l air
same,Volatility (μg/l air),[2],4.14 μg/l air
